A word on the IC50: it is the concentration at which inhibition is half-maximal. What is called Papp is the rate of passage across a membrane or cell layer, normalised by area and donor concentration. A word on the Papp A→B: it is how fast a substance crosses the layer from the apical side. Low readings indicate slow passage, high ones fast passage. As a reminder, the Papp B→A is the apparent permeability from the basolateral to the apical side of a cell layer. In general, amount remaining refers to the share of the starting amount still present when the sample was taken. Lower therefore signals more turnover. Broadly, the half-life is how long it takes for the measured level to halve. Higher therefore signals slow loss. What is called microsomal CLint is the capacity of the preparation to metabolise the compound, expressed as a volume cleared per time. High values mean rapid turnover, low ones slow turnover.

The values that follow come from article PMC13626384 (Journal of medicinal chemistry, 2025).

Series [1] can be described thus: PAMPA-BBB permeability assay. Particulars: PAMPA-BBB; for recovery / Papp: PAMPA; for recovery: % Recovery; for Papp: Mean Permeability. (PAMPA measures passive passage across an artificial lipid membrane.)
Series [2] in a line: Plasma stability. Particulars: for Plasma Stability % remaining: mouse plasma. In kind it is in vitro ADME.
Series [3] concerns SF188 cell line. The series can be described thus: Cytotoxicity against SF188 cells. In kind it is cell-based, human.
Series [4] is described as follows: Liver microsomal stability. Particulars: mouse liver microsomes. On the technique in general: Microsomes from liver hold many membrane-bound enzymes, among them those of drug oxidation.
Series [5] has as its system Caco-2 cells. Description: Caco-2 cell permeability and efflux. In kind it is in vitro ADME, human. Background: Passage across Caco-2 layers is used to estimate intestinal permeability.
For series [6], the target named is human immunoproteasome (i20S) β1 (Homo sapiens, UniProt P28065+P40306). Description: Proteasome subunit inhibition, i20S β1. In kind it is biochemical.
Series [7] is described as follows: In vivo pharmacokinetics, plasma and brain. Details: species or system Male C57BL/6 mice. Particulars: mice.
Series [8] deals with H460 cell line. The series can be described thus: Cytotoxicity against H460 cells. In kind it is cell-based. The conditions noted are these: read-out: H460 IC50; non-small cell lung cancer cell line.
The test system of series [9] is human foreskin fibroblasts (HFF-1) cell line. Description: Cytotoxicity against HFF-1 cells. It counts as cell-based. The conditions noted are these: read-out: HFF-1 IC50; non-cancerous fibroblasts.
Series [10] concerns the target human immunoproteasome (i20S) β2 (Homo sapiens, UniProt P40306+P49720). Description: Proteasome subunit inhibition, i20S β2. It counts as biochemical.
The subject of series [11] is D283-med cell line. The series can be described thus: Cytotoxicity against D283-med cells. In kind it is cell-based, human.
Series [12] has as its target human immunoproteasome (i20S) β5 (Homo sapiens, UniProt P20618+P28062). The series can be described thus: Proteasome subunit inhibition, i20S β5. In kind it is biochemical.
Series [13] concerns the target human constitutive proteasome (c20S) β1 (Homo sapiens, UniProt P28072+Q99436). The series can be described thus: Proteasome subunit inhibition, c20S β1. In kind it is biochemical.
Series [14] has as its target human constitutive proteasome (c20S) β5 (Homo sapiens, UniProt P20618+P28074). Description: Proteasome subunit inhibition, c20S β5. It counts as biochemical.
The nature of series [15]: Caco-2 cell permeability and efflux. It counts as in vitro ADME, human. The conditions noted are these: human; for Papp A→B / Papp B→A: Caco-2.
Series [16] concerns P-gp. The series can be described thus: Caco-2 cell permeability and efflux. Particulars: human, Caco-2. It counts as in vitro ADME, human.
For series [17], the target named is human constitutive proteasome (c20S) β2 (Homo sapiens, UniProt P49720+Q99436). The series can be described thus: Proteasome subunit inhibition, c20S β2. It counts as biochemical.
A short description of series [18]: Whole blood stability. It counts as in vitro ADME. Particulars: whole blood incubation, 2 hours.
Series [19] can be described thus: in vitro. The conditions noted are these: mouse liver microsomes.
For series [20], the system named is mice. Description: Toxicity observation in the PK study. In kind it is in vivo. Particulars: 1 mg/kg i.v.
Series [21] deals with Caco-2 cells. The conditions noted are these: ref Literature data; cited from earlier work.
Setting [22] is: read-out: D283-med IC50, medulloblastoma cell line.
Where [23] appears, read: Homo sapiens, SF-188, read-out: SF188 IC50, glioblastoma cell line.
Setting [24] is: Caco-2, % Recovery (A-B), Caco-2, A-B direction.
Setting [25] is: Caco-2, % Recovery (B-A), Caco-2, B-A direction.
Where [26] appears, read: Homo sapiens, D283 Med, read-out: D283-med IC50, medulloblastoma cell line.

The structures appear in SMILES notation. Like-named read-outs stand apart in the source and are kept apart here. Marks after values point to notes of the source that are not given here.

Regarding `CC(C)C[C@H](NC(=O)[C@@H]1Cc2c(F)c(F)c(c(F)c2F)S(=O)(=O)c2cccc(c2)CC(=O)N[C@@H](C(C)C)C(=O)N1)C(=O)[C@@]1(C)CO1` [Compound 11, (5S,8S)-3^2,3^3,3^5,3^6-Tetrafluoro-8-isopropyl-N-((S)-4-methyl-1-((R)-2-methyloxiran-2-yl)-1-oxopentan-2-yl)-7,10-dioxo-2-thia-6,9-diaza-1(1,3),3(1,4)-dibenzenacycloundecaphane-5-carboxamide 2,2-dioxide], the “% Recovery” value in [1] was found to be 64%. The “Mean Permeability” value in [1] is recorded as 2.15 10^−6 cm/sec. Also, the “Plasma Stability % remaining” value in series [2] (after 2 hr) was found to be 88%. Moreover, the IC50 in series [3] (read-out: SF188 IC50, glioblastoma cell line) was found to be 9.8 ± 1.2 nM; in series [6] (read-out: i20S β1 IC50 ± SD, read 60 to 90 minutes after start) it was 379 ± 47.7 nM; in series [8], 79 ± 20 nM; in series [9], 85 ± 7 nM; in series [10] (read-out: i20S β2 IC50 ± SD, read 60 to 90 minutes after start), 829 ± 187 nM; in [11] (setting [22]), 6 ± 2 nM. In series [12] (read-out: i20S β5 IC50 ± SD, read 60 to 90 minutes after start), the IC50 worked out at 830 ± 260 nM. Further, the “Microsomal Stability Clearance Category” value in series [4] was “Medium”. For the same molecule, the “Microsomal Stability mCLint” value in [4] stood at 43 µL/min/mg. For the same molecule, the “Microsomal Stability t1/2” value in series [4] came out at 32 min. In addition, the “% Recovery (A-B)” value in [5] (Caco-2, A-B direction) came out at 91%. Further, in [5] (Caco-2, B-A direction), the “% Recovery (B-A)” value is listed as 97%. Also, the “Pe (A-B)” value in series [5] (Caco-2, apical to basolateral) is given as 7.2 10^−6 cm/sec. Also, the “Pe (B-A)” value in [5] (Caco-2, basolateral to apical) is given as 45.4 10^−6 cm/sec. For the same molecule, the Plasma half-life in series [7] (10 mg/kg i.v., with and without tariquidar) is 72 to 84 min. Besides, in [7] (10 mg/kg i.v., with and without tariquidar, 30 minutes and 2 hours), the Brain tissue concentration entry is on record as “no quantifiable concentrations were detected”.

As for `CC(C)C[C@H](NC(=O)[C@@H]1CSCCOCCOCCC(=O)N[C@@H](C(C)C)C(=O)N1)C(=O)[C@@]1(C)CO1` [Compound 41, (9R,12S)-12-Isopropyl-N-((S)-4-methyl-1-((R)-2-methyloxiran-2-yl)-1-oxopentan-2-yl)-11,14-dioxo-1,4-dioxa-7-thia-10,13-diazacyclohexadecane-9-carboxamide], the recovery in series [1] turned out to be 98%; in series [15] (setting [24]) it was 102%; in series [15] (setting [25]), 101%. The Papp in series [1] was found to be 0.22 ×10⁻⁶ cm/s. The IC50 came to 484 ± 33 nM in series [13]; 113 ± 9 nM in [3] (setting [23]); 390 ± 50.7 nM in series [14]; 49 ± 2.2 nM in series [6]; 110 ± 20.3 nM in [17]; 277 ± 49.1 nM in series [10]. The IC50 in [11] (setting [26]) was determined as 90 ± 8 nM; in series [12], 4900 ± 2160 nM. In series [15], this molecule gave a Papp A→B of 0.75 ×10⁻⁶ cm/s. Moreover, the Papp B→A in series [15] came out at 20.8 ×10⁻⁶ cm/s. In addition, in series [16], the Efflux Ratio came out at 27.6.

In the case of `CC(C)C[C@H](NC(=O)[C@@H]1CS(=O)(=O)CCCCCCCCCC(=O)N[C@@H](C(C)C)C(=O)N1)C(=O)[C@@]1(C)CO1` [Compound 40, (3R,6S)-6-Isopropyl-N-((S)-4-methyl-1-((R)-2-methyloxiran-2-yl)-1-oxopentan-2-yl)-5,8-dioxo-1-thia-4,7-diazacycloheptadecane-3-carboxamide 1,1-dioxide], the recovery was 77% in series [1], 91% in series [15] (setting [24]) and 89% in [15] (setting [25]). The same molecule showed a Papp in series [1] of 3.34 ×10⁻⁶ cm/s. In addition, the IC50 was 767 ± 177 nM in [13]; 6.7 ± 0.3 nM in series [3] (setting [23]); 7.5 ± 0.6 nM in series [14]; 144 ± 9.2 nM in [6]; 39.4 ± 6.3 nM in series [17]; 23 ± 1.6 nM in [10]. The IC50 in series [11] (setting [26]) was found to be 2.3 nM; in [11] (setting [22]), 2.26 ± 0.26 nM; in series [12], 16 ± 2 nM. Moreover, the “Plasma Stability % remaining” value in series [2] (after 2 hr) was 94 after 2 hr %. For the same molecule, in series [2] (mouse, plasma, Plasma Stability % remaining, after 5 hr), the share remaining at 5 h was over 75%. For the same molecule, the “Microsomal Stability Clearance Category” value in series [4] is reported as “High”. In [15], the Papp A→B is 10.1 ×10⁻⁶ cm/s. The Papp B→A in series [15] amounted to 48.8 ×10⁻⁶ cm/s. Moreover, the Efflux Ratio in series [16] was determined as 4.8. For the same molecule, in [18], the Whole blood retention is reported as ~ 15%. Further, in series [19], the half-life is under 5 min. This molecule came in with a microsomal CLint in [19] of 323 µL/min/mg. The “Levels in brain tissues” value in series [7] (1 mg/kg i.v.) is “failed to achieve detectable levels”. In addition, the figures for the “Plasma concentrations after dosing” value in series [7] (1 mg/kg i.v.) and in series [7] (10 mg/kg) were “negligible plasma concentrations beyond 5 minutes post-dosing” and “did not exhibit significant plasma concentrations beyond 5 minutes post-administration”, respectively. Moreover, in series [20], the Signs of toxicity entry is “lack of toxicity”.

Consider `CC(C)C[C@H](NC(=O)[C@H](CCc1ccccc1)NC(=O)CN1CCOCC1)C(=O)N[C@@H](Cc1ccccc1)C(=O)N[C@@H](CC(C)C)C(=O)[C@@]1(C)CO1` [Carfilzomib, reference compound], for which, in [1], the recovery amounted to 41% and the Papp amounted to 1.43 ×10⁻⁶ cm/s. This molecule also had a share remaining at 2 h in [2] (mouse, plasma, Plasma Stability % remaining, after 2 hr) of 99%. Moreover, in series [3] (setting [23]), the IC50 came to 706 ± 82 nM. In addition, the “Microsomal Stability Clearance Category” value in series [4] is reported as “High”. This molecule yielded a half-life in [19] of under 5 min. In addition, in series [21], the “Efflux Ratio” value is 28.6*. Also, the IC50 in series [11] (setting [26]) was determined as 205 ± 24 nM.
